pIC50: −log10 of the molar value. Read-outs that look alike come from different tables or passages of the source.
How the values were obtained:
SOAT [1] = molecular target: T1, SOAT (Homo sapiens, UniProt Q3KNW5); assay: Transport inhibition in SOAT-HEK293 cells; assay type: cell-based; settings: triterpenoid inhibitors, 10 min after 5 min preincubation
T1 construct: The full-length open reading frames of NTCP, ASBT, and SOAT were cloned; expressed in transfected cells; host or cells: Flp-In T-REX HEK293 (SOAT-HEK293), tetracycline-induced
T1 sequence (Q3KNW5 1-377): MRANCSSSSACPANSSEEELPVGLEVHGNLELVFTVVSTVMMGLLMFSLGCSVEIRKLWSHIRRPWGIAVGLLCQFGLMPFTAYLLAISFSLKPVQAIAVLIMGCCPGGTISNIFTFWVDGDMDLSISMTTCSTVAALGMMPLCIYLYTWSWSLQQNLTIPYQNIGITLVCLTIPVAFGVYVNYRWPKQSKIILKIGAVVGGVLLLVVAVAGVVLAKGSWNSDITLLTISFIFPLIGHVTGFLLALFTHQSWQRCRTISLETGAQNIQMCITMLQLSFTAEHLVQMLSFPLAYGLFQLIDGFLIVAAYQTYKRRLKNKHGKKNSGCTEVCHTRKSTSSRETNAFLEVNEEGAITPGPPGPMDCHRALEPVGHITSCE
Description: (§1) Cells were washed three times with PBS and were preincubated with the respective inhibitor in sodium transport buffer for 5 min at 37°C. Uptake was initiated by adding the respective radiolabeled substrate to the well and incubating for a fixed time as indicated in the figures at 37°C. Transport was terminated by removing the transport buffer and washing five-times with ice-cold PBS. Cell monolayers were lysed in 1 N NaOH with 0.1% SDS and the cell-associated radioactivity and protein content was determined as described above. For uptake inhibition with the myr-preS1 peptide the sodium transport buffer contained additionally MEM-amino acid solution (ThermoFisher) at 1:50 dilution.
(§2) All transport or inhibition graphs were generated with GraphPad Prism 6.0 (GraphPad). Determination of IC50 values was done by nonlinear regression analysis using the equation log (inhibitor) vs. response settings. If not stated otherwise in the legends all data represent means ± SD of at least triplicate determinations of representative experiments.
(§3) FIGURE 3 Inhibition of NTCP, ASBT, and SOAT with substrate inhibitors. Transport of [^3H]TC, [^3H]TLC, and [^3H]DHEAS was analyzed in NTCP-HEK293, ASBT-HEK293, and SOAT-HEK293 cells in the presence of the substrate inhibitors TC, TLC, and DHEAS at increasing concentrations ranging from 100 nM till 1000 µM. After 5 min of preincubation with the respective inhibitory compound, 200 nM [^3H]TLC, [^3H]TC or [^3H]DHEAS were added for additional 1 min and the cell lysates were analyzed by liquid scintillation counting. Unspecific uptake of HEK293-FlpIn cells was set to 0%. Carrier-specific uptake without inhibitor was set to 100%.
(§4) Transport of [^3H]TC, [^3H]TLC, and [^3H]DHEAS was analyzed in NTCP-HEK293, ASBT-HEK293, and SOAT-HEK293 cells in the presence of different supposed non-substrate triterpenoid inhibitors as indicated at increasing concentrations ranging from 100 nM till 1000 µM. After 5 min of preincubation with the respective inhibitory compound, 1 µM [^3H]TLC, [^3H]TC or [^3H]DHEAS were added for additional 10 min at 37°C and the cell lysates were analyzed by liquid scintillation counting. Experiments performed without inhibitor were set to 100%. Means of negative controls were subtracted to calculate net transport rates (expressed as percentage of control). Data represent means ± SD of quadruplicate determinations of representative experiments.

ASBT = molecular target: T2, ASBT (Homo sapiens, UniProt Q12908); assay: Transport inhibition in ASBT-HEK293 cells; assay type: cell-based; settings: triterpenoid inhibitors, 10 min after 5 min preincubation
T2 construct: The full-length open reading frames of NTCP, ASBT, and SOAT were cloned; expressed in transfected cells; host or cells: Flp-In T-REX HEK293 (ASBT-HEK293), tetracycline-induced
T2 sequence (Q12908 1-348): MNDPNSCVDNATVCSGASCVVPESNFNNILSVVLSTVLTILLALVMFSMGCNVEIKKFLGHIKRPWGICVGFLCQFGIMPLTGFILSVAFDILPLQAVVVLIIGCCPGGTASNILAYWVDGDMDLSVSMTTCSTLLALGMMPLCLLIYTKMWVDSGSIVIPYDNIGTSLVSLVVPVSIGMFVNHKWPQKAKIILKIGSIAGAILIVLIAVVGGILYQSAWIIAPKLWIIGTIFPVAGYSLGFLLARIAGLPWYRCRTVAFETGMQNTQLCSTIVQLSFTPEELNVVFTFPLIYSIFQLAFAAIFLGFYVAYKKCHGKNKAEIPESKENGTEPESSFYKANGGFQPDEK
Description: as §1, §2, §3, §4

NTCP [2] = molecular target: T3, NTCP (Homo sapiens, UniProt Q14973); assay: Transport inhibition in NTCP-HEK293 cells
T3 sequence (Q14973 1-349): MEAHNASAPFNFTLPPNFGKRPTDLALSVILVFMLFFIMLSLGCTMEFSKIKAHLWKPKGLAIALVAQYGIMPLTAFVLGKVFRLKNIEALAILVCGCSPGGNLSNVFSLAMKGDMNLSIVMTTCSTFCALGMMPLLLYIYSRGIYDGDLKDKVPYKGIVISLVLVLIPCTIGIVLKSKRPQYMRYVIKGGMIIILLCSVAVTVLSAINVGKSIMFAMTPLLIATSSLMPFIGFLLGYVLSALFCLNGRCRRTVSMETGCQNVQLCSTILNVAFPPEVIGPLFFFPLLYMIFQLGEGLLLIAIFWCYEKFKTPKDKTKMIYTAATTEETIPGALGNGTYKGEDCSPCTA

HDV = settings: in vitro; ref Kirstgen et al., 2020; cited from earlier work
SOAT [3] = molecular target: T1, SOAT; parameters: method as in Geyer et al. (2007); settings: uptake via SOAT, same SOAT-HEK293 cell line; ref Geyer et al. (2007); cited from earlier work
NTCP [4] = molecular target: T3, NTCP; assay: Substrate screening: sodium-dependent uptake of radiolabeled compounds in NTCP-HEK293 cells; assay type: cell-based; parameters: The full-length open reading frames of NTCP, ASBT, and SOAT were cloned; expressed in transfected cells; host or cells: Flp-In T-REX HEK293 (NTCP-HEK293), tetracycline-induced; settings: radiolabeled steroid compounds 200 nM, 10 min, NTCP-HEK293, vs sodium-free control
Description: (§5) Stably SLC10 transporter transfected NTCP-HEK293, ASBT-HEK293, SOAT-HEK293 cells and the HEK293-FlpIn maternal cell line were seeded on 24-well plates (if not stated otherwise for individual assays). Well plates were coated with poly-D-lysine prior to seeding of 125,000 cells per well. Cells were grown with 1 ml of standard medium per well with or without tetracycline ([…]) for 72 h to induce carrier expression before respective assays were started. HEK293-FlpIn cells were cultivated with standard medium and served as control.
(§6) Uptake experiments were initiated by replacing the preincubation buffer by 500 μL transport buffer containing the radiolabeled test compound and were performed at 37°C. Transport was terminated by removing the transport buffer and washing five-times with ice-cold PBS. Cell monolayers were lysed in 1 N NaOH with 0.1% SDS and the cell-associated radioactivity was determined by liquid scintillation counting.
(§7) FIGURE 1 Comparative substrate screening for bile acids and sulfated steroids in NTCP-, ASBT-, and SOAT-HEK293 cells. Transport assays were performed with the indicated substrates in NTCP-HEK293, ABST-HEK293, SOAT-HEK293, and HEK293-FlpIn cells. Cells were washed and equilibrated with Na^+-containing transport buffer (filled bars) or with Na^+-free transport buffer (open bars) at 37°C. For uptake, cells were incubated with radiolabeled steroid compounds at a final concentration of 200 nM in Na^+-containing or Na^+-free transport buffer for 10 min. Radiolabeled bile acids were used at 1 µM concentrations and transport was analyzed over 30 min. HEK293-FlpIn cells served as additional controls. After the indicated time intervals, cells were washed with ice-cold PBS, lysed and subjected to liquid scintillation counting. […] 3-OH, trihydroxylated BAs; 2-OH, dihydroxylated BAs; 1-OH, monohydroxylated BAs.

SOAT [5] = molecular target: T1, SOAT; assay: Substrate screening: sodium-dependent uptake of radiolabeled compounds in SOAT-HEK293 cells; assay type: cell-based; settings: radiolabeled steroid compounds 200 nM, 10 min, SOAT-HEK293, vs sodium-free control
Description: as §5, §6, §7

NTCP [6] = molecular target: T3, NTCP; assay: Transport kinetics (concentration-dependent uptake) in NTCP-HEK293 cells; assay type: cell-based; parameters: The full-length open reading frames of NTCP, ASBT, and SOAT were cloned; expressed in transfected cells; host or cells: Flp-In T-REX HEK293 (NTCP-HEK293), tetracycline-induced; settings: uptake via NTCP, 1 min, 37°C
Description: as §6
FIGURE 2 NTCP, ASBT, and SOAT transport kinetics. Concentration-dependent uptake was analyzed in NTCP-HEK293, ASBT-HEK293, and SOAT-HEK293 cells for the indicated substrates at increasing substrate concentrations. Stably transfected HEK293 cells were pretreated with 1 μg/ml tetracycline to induce carrier expression. HEK293-FlpIn cells were used as control. Uptake was analyzed for 1 min at 37°C. Afterward, the medium was removed and each cell monolayer was washed and processed to determine the protein content and cell-associated radioactivity. Specific uptake was calculated by subtracting non-specific uptake of the HEK293-FlpIn control cells (open squares) from uptake into carrier-overexpressing HEK293 cells (filled squares) and is shown by broken lines. The values represent means ± SD of duplicate experiments, each with triplicate determinations (n = 6).

[7] = 1 µM [3H]DHEAS, read-out: SOAT IC50, substrate [3H]DHEAS
[8] = 1 µM [3H]TLC, read-out: SOAT IC50, substrate [3H]TLC
[9] = 1 µM [3H]TC, read-out: ASBT IC50, substrate [3H]TC
[10] = 1 µM [3H]TLC, read-out: ASBT IC50, substrate [3H]TLC
[11] = NTCP IC50, substrate [3H]TC, triterpenoid inhibitors, 1 µM [3H]TC, 10 min after 5 min preincubation
[12] = NTCP IC50, substrate [3H]TLC, triterpenoid inhibitors, 1 µM [3H]TLC, 10 min after 5 min preincubation

Row | Compound | pIC50 (SOAT [1]; [7]) | pIC50 (SOAT [1]; [8]) | pIC50 (ASBT; [9]) | pIC50 (ASBT; [10]) | pIC50 (NTCP [2]; [11]) | pIC50 (NTCP [2]; [12]) | anti-HDV activity in vitro (HDV) | Apparent K m (SOAT [3]) [µM] | V max (SOAT [3]) [pmol/mg protein/min] | Transport activity grading NTCP (mean uptake) (NTCP [4]) | Transport activity grading SOAT (mean uptake) (SOAT [5]) | Apparent K m (NTCP [6]) [µM] | V max (NTCP [6]) [pmol/mg protein/min] | further results
1 | C=C(C)[C@@H]1CC[C@]2(CO)CC[C@]3(C)[C@H](CC[C@@H]4[C@@]5(C)CC[C@H](OC(=O)/C=C/c6ccc(O)c(O)c6)C(C)(C)[C@@H]5CC[C@]43C)[C@@H]12 [3-O-Caffeoyl betulin] | 3.52 | 4.42 | 3.30 | 4.00 | 3.89 | 5.68 | – | – | – | – | – | – | – | pIC50 (NTCP [2]; NTCP IC50, substrate [3H]DHEAS, triterpenoid inhibitors, 1 µM [3H]DHEAS, 10 min after 5 min preincubation): 4.31
2 | C=C(C)[C@@H]1CC[C@]2(CO)CC[C@]3(C)[C@H](CC[C@@H]4[C@@]5(C)CC[C@H](O)C(C)(C)[C@@H]5CC[C@]43C)[C@@H]12 [Betulin] | – | – | – | – | – | – | – | – | – | – | – | – | – | pIC50 (SOAT [1]; SOAT IC50, substrate [3H]DHEAS, 1 µM [3H]DHEAS): 3.04; pIC50 (SOAT [1]; SOAT IC50, substrate [3H]TLC, 1 µM [3H]TLC): 4.30; pIC50 (ASBT; ASBT IC50, substrate [3H]TC, 1 µM [3H]TC): < 3.00; pIC50 (ASBT; ASBT IC50, substrate [3H]TLC, 1 µM [3H]TLC): 3.72
3 | C=C(C)[C@@H]1CC[C@]2(C(=O)O)CC[C@]3(C)[C@H](CC[C@@H]4[C@@]5(C)CC[C@H](O)C(C)(C)[C@@H]5CC[C@]43C)[C@@H]12 [Betulinic acid] | 5.92 | 5.02 | < 3.00 | 3.71 | – | – | anti-HDV activity | – | – | – | – | – | – | –
4 | C[C@]12CC[C@@H]3c4ccc(OS(=O)(=O)O)cc4CC[C@H]3[C@@H]1CCC2=O [E1S, Estrone-3-sulfate] | – | – | – | – | – | – | – | 12.0 ± 2.3 | 585 ± 34 | ++ (“++” for values between 10 and 100) | + (Mean uptake “+” for values below 10) | 57.6 ± 11.3 | 2367 ± 170.8 | –
5 | C=C(C)[C@@H]1CC[C@]2(C)CC[C@]3(C)[C@H](CC[C@@H]4[C@@]5(C)CCC(=O)C(C)(C)[C@@H]5CC[C@]43C)[C@@H]12 [Lupenone] | 3.18 | 3.91 | < 3.00 | < 3.00 | 3.62 | 4.93 | anti-HDV activity | – | – | – | – | – | – | pIC50 (NTCP [2]; NTCP IC50, substrate [3H]DHEAS): < 3.00
6 | Pregnenolone sulfate [PREGS] | – | – | – | – | – | – | – | 11.3 ± 3.0 | 2168 ± 134 | +++ (“+++” for values above 100 pmol/mg protein/10 min for sulfated steroid hormones) | +++ (“+++” for values above 100 pmol/mg protein/10 min for sulfated steroid hormones) | 8.8 ± 2.1 | 1036 ± 69.1 | –
